Data published in US20110086759A1, “CHEMICAL COMPOUNDS” (SYNGENTA CROP PROTECTION, INC., priority 2007, published 2011).

Key:
Type in all cases: in vivo
Solanum nigrum (SOLNI) [1] = assay: Pre-emergence biological efficacy, glasshouse pot test; details: 312 h, pre-emergence, rate 1,000 g/ha, evaluated after 13 days (100=total damage to plant; 0=no damage), read-out: Percentage damage caused to weed species, SOLNI
Outline: (§1)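 Glasshouse pot test: spray on soil one day after sowing, 1000 or 250 g/ha. Conditions 24/16 °C day/night, 14 h light, 65% humidity. Plant damage scored 0–100 at 13 days.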

Setaria faberi (SETFA) [2] = assay: as above; details: 312 h, pre-emergence, rate 1,000 g/ha, evaluated after 13 days (100=total damage to plant; 0=no damage), read-out: Percentage damage caused to weed species, SETFA
Outline: as §1

[3] = tested on: Alopecurus myosuroides (ALOMY); assay: as above; details: 312 h, pre-emergence, rate 1,000 g/ha, evaluated after 13 days (100=total damage to plant; 0=no damage), read-out: Percentage damage caused to weed species, ALOMY
Outline: as §1

[4] = tested on: Amaranthus retoflexus (AMARE); assay: as above; details: Amaranthus retroflexus, 312 h; pre-emergence, rate 1,000 g/ha, evaluated after 13 days (100=total damage to plant; 0=no damage); read-out: Percentage damage caused to weed species, AMARE
Outline: as §1

[5] = tested on: Ipomea hederaceae (IPOHE); assay: as above; details: Ipomoea hederacea, 312 h; pre-emergence, rate 1,000 g/ha, evaluated after 13 days (100=total damage to plant; 0=no damage); read-out: Percentage damage caused to weed species, IPOHE
Outline: as §1

[6] = tested on: Echinochloa crus-galli (ECHCG); assay: as above; details: 312 h, pre-emergence, rate 1,000 g/ha, evaluated after 13 days (100=total damage to plant; 0=no damage), read-out: Percentage damage caused to weed species, ECHCG
Outline: as §1

Solanum nigrum (SOLNI) [7] = assay: Post-emergence biological efficacy, glasshouse pot test; details: 312 h, Rate 1,000 g/ha, post-emergence spray, evaluated after 13 days (100=total damage to plant; 0=no damage to plant), read-out: Percentage damage caused to weed species, post-emergence, SOLNI
Outline: (§2)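 Pot-grown weeds were sprayed 8 days after sowing with test compound in acetone/water (50:50) with 0.5% Tween 20 at 1000 or 250 g/ha. Glasshouse at 24/16° C day/night, 14 h light, 65% humidity. Damage scored 0-100 (100 = total damage) after 13 days.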

Setaria faberi (SETFA) [8] = assay: as above; details: 312 h, Rate 1,000 g/ha, post-emergence spray, evaluated after 13 days (100=total damage to plant; 0=no damage to plant), read-out: Percentage damage caused to weed species, post-emergence, SETFA
Outline: as §2

[9] = tested on: Alopecurus myosuroides (ALOMY); assay: as above; details: 312 h, Rate 1,000 g/ha, post-emergence spray, evaluated after 13 days (100=total damage to plant; 0=no damage to plant), read-out: Percentage damage caused to weed species, post-emergence, ALOMY
Outline: as §2

[10] = tested on: Amaranthus retoflexus (AMARE); assay: as above; details: Amaranthus retroflexus, 312 h; Rate 1,000 g/ha; post-emergence spray; evaluated after 13 days (100=total damage to plant; 0=no damage to plant); read-out: Percentage damage caused to weed species, post-emergence, AMARE
Outline: as §2

[11] = tested on: Ipomea hederaceae (IPOHE); assay: as above; details: Ipomoea hederacea, 312 h; Rate 1,000 g/ha; post-emergence spray; evaluated after 13 days (100=total damage to plant; 0=no damage to plant); read-out: Percentage damage caused to weed species, post-emergence, IPOHE
Outline: as §2

[12] = tested on: Echinochloa crus-galli (ECHCG); assay: as above; details: 312 h, Rate 1,000 g/ha, post-emergence spray, evaluated after 13 days (100=total damage to plant; 0=no damage to plant), read-out: Percentage damage caused to weed species, post-emergence, ECHCG
Outline: as §2

Structure (SMILES): COC(=O)c1nc(C2CC2)nc(N(C/C=C/c2ccccc2OC)C(C)C)c1Cl [Compound 146-255, 5-Chloro-2-cyclopropyl-4-{N-isopropyl-N-[3-(2-methoxyphenyl)-prop-2-enyl]-amino}-6-methoxycarbonyl-pyrimidine]
- pest or weed control at 1000 g/ha (Solanum nigrum (SOLNI) [1]): 10%
- pest or weed control at 1000 g/ha (Setaria faberi (SETFA) [2]): 20%
- pest or weed control at 1000 g/ha [3]: 10%
- pest or weed control at 1000 g/ha [4]: 100%
- pest or weed control at 1000 g/ha [5]: 70%
- pest or weed control at 1000 g/ha [6]: 10%
- pest or weed control at 1000 g/ha (Solanum nigrum (SOLNI) [7]): 80%
- pest or weed control at 1000 g/ha (Setaria faberi (SETFA) [8]): 80%
- pest or weed control at 1000 g/ha [9]: 20%
- pest or weed control at 1000 g/ha [10]: 100%
- pest or weed control at 1000 g/ha [11]: 100%
- pest or weed control at 1000 g/ha [12]: 30%

Structure (SMILES): CCCCN(Cc1ccccc1)c1nc(C2CC2)nc(C(=O)OC)c1Cl [Compound 147-60, 4-(N-But-1-yl-N-phenylmethyl-amino)-5-chloro-2-cyclopropyl-6-methoxycarbonyl-pyrimidine]
- pest or weed control at 1000 g/ha (Solanum nigrum (SOLNI) [1]): 80%
- pest or weed control at 1000 g/ha (Setaria faberi (SETFA) [2]): 0%
- pest or weed control at 1000 g/ha [3]: 40%
- pest or weed control at 1000 g/ha [4]: 100%
- pest or weed control at 1000 g/ha [5]: 30%
- pest or weed control at 1000 g/ha [6]: 20%
- pest or weed control at 1000 g/ha (Solanum nigrum (SOLNI) [7]): 80%
- pest or weed control at 1000 g/ha (Setaria faberi (SETFA) [8]): 40%
- pest or weed control at 1000 g/ha [9]: 10%
- pest or weed control at 1000 g/ha [10]: 70%
- pest or weed control at 1000 g/ha [11]: 80%
- pest or weed control at 1000 g/ha [12]: 10%

Structure (SMILES): CCC(C)N(Cc1ccccc1)c1nc(C2CC2)nc(C(=O)OC)c1Cl (stereo not drawn) [Compound 148-60, 4-(N-But-2-yl-N-phenylmethyl-amino)-5-chloro-2-cyclopropyl-6-methoxycarbonyl-pyrimidine]
- pest or weed control at 1000 g/ha (Solanum nigrum (SOLNI) [1]): 80%
- pest or weed control at 1000 g/ha (Setaria faberi (SETFA) [2]): 0%
- pest or weed control at 1000 g/ha [3]: 0%
- pest or weed control at 1000 g/ha [4]: 80%
- pest or weed control at 1000 g/ha [5]: 30%
- pest or weed control at 1000 g/ha [6]: 0%
- pest or weed control at 1000 g/ha (Solanum nigrum (SOLNI) [7]): 80%
- pest or weed control at 1000 g/ha (Setaria faberi (SETFA) [8]): 40%
- pest or weed control at 1000 g/ha [9]: 10%
- pest or weed control at 1000 g/ha [10]: 100%
- pest or weed control at 1000 g/ha [11]: 90%
- pest or weed control at 1000 g/ha [12]: 0%

Structure (SMILES): COC(=O)c1nc(C2CC2)nc(N(Cc2ccccc2)C[Si](C)(C)C)c1Cl [Compound 150-60, 5-Chloro-2-cyclopropyl-6-methoxycarbonyl-4-(N-phenylmethyl-N-trimethylsilylmethyl-amino)pyrimidine]
- pest or weed control at 1000 g/ha (Solanum nigrum (SOLNI) [1]): 70%
- pest or weed control at 1000 g/ha (Setaria faberi (SETFA) [2]): 20%
- pest or weed control at 1000 g/ha [3]: 20%
- pest or weed control at 1000 g/ha [4]: 80%
- pest or weed control at 1000 g/ha [5]: 90%
- pest or weed control at 1000 g/ha [6]: 40%
- pest or weed control at 1000 g/ha (Solanum nigrum (SOLNI) [7]): 90%
- pest or weed control at 1000 g/ha (Setaria faberi (SETFA) [8]): 70%
- pest or weed control at 1000 g/ha [9]: 40%
- pest or weed control at 1000 g/ha [10]: 100%
- pest or weed control at 1000 g/ha [11]: 90%
- pest or weed control at 1000 g/ha [12]: 60%

Structure (SMILES): C=CCN(Cc1ccccc1)c1nc(C2CC2)nc(C(=O)OC)c1Cl [Compound 151-60, 5-Chloro-2-cyclopropyl-6-methoxycarbonyl-4-(N-phenylmethyl-N-prop-2-en-1-yl-amino)-pyrimidine]
- pest or weed control at 1000 g/ha (Solanum nigrum (SOLNI) [1]): 10%
- pest or weed control at 1000 g/ha (Setaria faberi (SETFA) [2]): 10%
- pest or weed control at 1000 g/ha [3]: 20%
- pest or weed control at 1000 g/ha [4]: 40%
- pest or weed control at 1000 g/ha [5]: 60%
- pest or weed control at 1000 g/ha [6]: 20%
- pest or weed control at 1000 g/ha (Solanum nigrum (SOLNI) [7]): 80%
- pest or weed control at 1000 g/ha (Setaria faberi (SETFA) [8]): 80%
- pest or weed control at 1000 g/ha [9]: 20%
- pest or weed control at 1000 g/ha [10]: 100%
- pest or weed control at 1000 g/ha [11]: 70%
- pest or weed control at 1000 g/ha [12]: 40%

Structure (SMILES): C=CCN(Cc1ccccc1F)c1nc(C2CC2)nc(C(=O)OC)c1Cl [Compound 151-64, 5-Chloro-2-cyclo-propyl-4-[N(2-fluorophenyl)methyl-N-prop-2-enyl-amino]-6-methoxy-carbonylpyrimidine]
- pest or weed control at 1000 g/ha (Solanum nigrum (SOLNI) [1]): 0%
- pest or weed control at 1000 g/ha (Setaria faberi (SETFA) [2]): 0%
- pest or weed control at 1000 g/ha [3]: 0%
- pest or weed control at 1000 g/ha [4]: 30%
- pest or weed control at 1000 g/ha [5]: 30%
- pest or weed control at 1000 g/ha [6]: 0%
- pest or weed control at 1000 g/ha (Solanum nigrum (SOLNI) [7]): 90%
- pest or weed control at 1000 g/ha (Setaria faberi (SETFA) [8]): 90%
- pest or weed control at 1000 g/ha [9]: 10%
- pest or weed control at 1000 g/ha [10]: 100%
- pest or weed control at 1000 g/ha [11]: 100%
- pest or weed control at 1000 g/ha [12]: 40%
